{"source": "patent US9649298B2", "about": "“Cytotoxic substance for use in combination with radiotherapy in cancer treatment” (Fumedica AG, priority 2013, dated 2017)", "key": {"[1]": {"tested_on": "glioblastoma tumor", "experiment": "Glioblastoma tumor size after irradiation with 50x50 microbeam array (Example 2) followed by cisplatin", "assay_type": "in vivo", "settings": "Cisplatin administered within 30 min to 1 h after irradiation with 50x50 microbeam array", "text": "In this example, CAM were irradiated at the biomedical beamline of ESRF. The generation and preparation of the microbeams occurred basically in the same manner as described in Example 1 according to a second preferred embodiment with the substantially circular cross-section of each microbeam. The difference here however is that behind the multi-slit collimator a second collimator (such as an Archer variable multi-slit collimator) was placed into the path of the first array of microbeams formed by the first collimator. […] A GafChromic radiochromic film type […] But in Example 2 the irradiation rather punctures the tissue. Therefore, the level of exposure of the irradiated tissue is even less lethal and results in a […] chemotherapeutic window (compared to FIG. 4)."}, "[2]": {"tested_on": "U-87 MG human glioblastoma xenographs", "experiment": "Tumor volume in U-87 MG human glioblastoma xenografts after microbeam radiation (fan-like array) and/or cisplatin", "assay_type": "in vivo, Balb/c nude mice"}}, "data": [{"smiles": "N.N.[Cl][Pt][Cl]", "note": "[Cisplatin, cisplatin]", "values": [{"measurement": "glioblastoma tumor sizes after treatment", "setting": "[1]", "value": "progressive and significant decrease"}, {"measurement": "tumor sizes after treatment (tumor volume, FIG. 8a)", "setting": "[2]; double treatment (DT): Cisplatin administered after the MR procedure, within window of increased vascular permeability", "value": "progressive and significant decrease"}, {"measurement": "tumor sizes after treatment (tumor volume, FIG. 8a)", "setting": "[2]; only Cisplatin, single chemotherapeutic treatment, no irradiation", "value": "gradual increase in size"}]}]}
